This is an account of results in article PMC2659609 (Molecular cancer therapeutics, 2008).

Molecules are shown by their SMILES. Some results are limits rather than exact numbers.

Series [1] concerns human hepatoma cell line HepG2. In words: General cell cytotoxicity assay. The class given is cell-based. The note with it: 20μM, 72 hours, media and compounds replaced every 24 hours.
In series [2] the test system is human prostate cancer cell line LNCaP. Briefly: General cell cytotoxicity assay. It is filed as cell-based. Conditions: 20μM, 72 hours, media and compounds replaced every 24 hours.
Series [3] concerns mouse prostate epithelial cell line MP-1. Briefly: General cell cytotoxicity assay. The class given is cell-based. Conditions: 20μM, 72 hours, media and compounds replaced every 24 hours.
For series [4] the following is noted: mainly to albumin; cited from earlier work.
The target in series [5] is full-length wild-type mouse hepsin expressed in HEK 293FT cells (Mus musculus, UniProt O35453). In words: Hepsin-dependent pericellular serine proteolytic activity assay. It is filed as cell-based.
For series [6] the following is noted: approximate; cited from earlier work.
The target of another series is thrombin (Bos taurus, UniProt P00735). In words: Thrombin activity assay, chromogenic substrate pyroGlu-Pro-Arg-pNA, kinetic. The class given is biochemical.
Another series relates to HEK 293FT cells. Briefly: Toxicity to HEK 293FT cells under pericellular assay conditions. The class given is cell-based. Conditions: 24-hour treatment.
The target of a further series is trypsin (Sus scrofa, UniProt P00761). Briefly: Trypsin activity assay, chromogenic substrate pyroGlu-Pro-Arg-pNA, kinetic. It is filed as biochemical.
The target in series [7] is purified recombinant human hepsin (Homo sapiens, UniProt P05981). In words: Hepsin activity assay, chromogenic substrate pyroGlu-Pro-Arg-pNA, kinetic.
Sequence of purified recombinant human hepsin (P05981 46-417): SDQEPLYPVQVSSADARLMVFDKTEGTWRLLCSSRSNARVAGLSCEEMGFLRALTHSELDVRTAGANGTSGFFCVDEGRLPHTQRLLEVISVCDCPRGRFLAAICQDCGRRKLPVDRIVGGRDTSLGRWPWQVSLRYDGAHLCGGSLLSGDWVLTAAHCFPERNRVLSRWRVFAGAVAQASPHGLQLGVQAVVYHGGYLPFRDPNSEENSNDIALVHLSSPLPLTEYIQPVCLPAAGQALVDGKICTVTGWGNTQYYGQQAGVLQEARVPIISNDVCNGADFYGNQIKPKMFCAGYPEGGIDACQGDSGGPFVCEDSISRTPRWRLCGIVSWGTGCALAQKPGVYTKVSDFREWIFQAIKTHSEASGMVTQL

Sequence of full-length wild-type mouse hepsin expressed in HEK 293FT cells (O35453 1-416 isoform O35453-2): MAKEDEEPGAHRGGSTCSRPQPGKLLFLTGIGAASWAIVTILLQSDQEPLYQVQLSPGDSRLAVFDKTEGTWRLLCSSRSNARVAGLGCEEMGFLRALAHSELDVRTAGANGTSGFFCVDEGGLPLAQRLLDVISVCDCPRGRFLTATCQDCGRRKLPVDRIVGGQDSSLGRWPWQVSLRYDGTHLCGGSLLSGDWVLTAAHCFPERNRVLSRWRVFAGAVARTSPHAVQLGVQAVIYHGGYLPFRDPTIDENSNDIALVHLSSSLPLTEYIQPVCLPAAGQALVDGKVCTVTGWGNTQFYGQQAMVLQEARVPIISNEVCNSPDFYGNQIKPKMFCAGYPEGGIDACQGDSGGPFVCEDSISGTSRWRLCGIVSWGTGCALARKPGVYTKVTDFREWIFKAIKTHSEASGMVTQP
Sequence of trypsin (P00761 9-231): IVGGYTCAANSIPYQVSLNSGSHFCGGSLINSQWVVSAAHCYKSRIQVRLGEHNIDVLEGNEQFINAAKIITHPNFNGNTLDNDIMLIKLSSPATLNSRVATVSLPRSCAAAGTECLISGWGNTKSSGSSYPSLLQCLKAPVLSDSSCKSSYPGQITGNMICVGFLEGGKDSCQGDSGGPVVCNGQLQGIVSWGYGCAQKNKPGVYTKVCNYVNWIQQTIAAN

With `Oc1nc2cc(Cl)c(Cl)cc2nc1O` [Compound 16, 2,3-dihydroxy-6,7-dichloroquinoxaline], the “cytotoxicity to HepG2 cells” value in [1] is listed as “limited or no cytotoxicity”. For the same molecule, the “cytotoxicity to LNCaP cells” value in series [2] was “limited or no cytotoxicity”. For the same molecule, in series [3], the “cytotoxicity to MP-1 cells” value is “limited or no cytotoxicity”.

Regarding `O=C1Nc2ccc(Cl)cc2[C@@](C#CC2CC2)(C(F)(F)F)O1` [efavirenz], in series [4], the “protein bound in plasma” value is on record as “more than 99%”.

By logP is commonly meant a log measure of how a compound divides between an organic and an aqueous phase. The IC50 is the concentration needed to halve the response being measured. Take `CC(C)(Sc1cc(C(C)(C)C)c(O)c(C(C)(C)C)c1)Sc1cc(C(C)(C)C)c(O)c(C(C)(C)C)c1` [Compound 14, probucol]: the “attenuation of pericellular proteolytic activity (in words)” value in series [5] (20 and 50μM, 24 hours) is recorded as “did not reduce”. For the same molecule, in [6], the logP is recorded as approximately 10. Also, the “cytotoxicity to HepG2 cells” value in [1] is “limited or no cytotoxicity”. Further, the “cytotoxicity to LNCaP cells” value in [2] is given as “limited or no cytotoxicity”. The half-maximal inhibitory concentration (IC50) against thrombin is more than 20 µM. In addition, the “cytotoxicity to MP-1 cells” value in series [3] is given as “limited or no cytotoxicity”.

Turning to `O=C1c2c(O)cccc2Cc2cccc(O)c21` [Compound 15, anthralin], the “toxicity to HEK 293FT cells” value with HEK 293FT cells (50μM) is on record as “substantial toxicity”. The “cytotoxicity to HepG2 cells” value in series [1] is reported as “toxic”. The “cytotoxicity to LNCaP cells” value in [2] was “toxic”. Moreover, the concentration for half-maximal inhibition (IC50) at thrombin is more than 20 µM. Besides, the “cytotoxicity to MP-1 cells” value in series [3] is listed as “toxic”.

As for `Cc1cccc(CN2CCN(C(c3ccccc3)c3ccc(Cl)cc3)CC2)c1` (stereo not shown) [Compound 13, meclizine], the IC50 on trypsin and against thrombin was more than 20 µM in each case. In the series with HEK 293FT cells (20 and 50μM), the “overt toxicity to HEK 293FT cells / effect on hepsin expression levels” value is recorded as “without substantially affecting hepsin expression levels or displaying overt toxicity”. Besides, in series [5] (50μM, normalized to hepsin expression level, relative to vehicle), the “attenuation of pericellular proteolytic activity” value is recorded as approximately 25%. Also, in series [1], the “cytotoxicity to HepG2 cells” value was “limited or no cytotoxicity”. Further, the “cytotoxicity to LNCaP cells” value in [2] is recorded as “limited or no cytotoxicity”. Also, in [7], the “equilibration time dependence of hepsin inhibition” value is “significantly increased with extended equilibration time”. For the same molecule, in series [7] (inhibitor at its IC50, 1 hour at room temperature, then diluted), the “reversibility of hepsin inhibition by dilution” value is recorded as “not reversible by dilution”. Besides, the “cytotoxicity to MP-1 cells” value in series [3] is reported as “limited or no cytotoxicity”.

Regarding `Cl.NCCc1ccc(S(=O)(=O)F)cc1` [PEFAbloc], the “inhibition of hepsin proteolytic activity (in words)” value in series [7] (4mM PEFAbloc, 30 minutes, 0.4nM hepsin) was “completely inhibited”.
